# From patent US20040033987A1, “Phospholipid derivatives of valproic acid and mixtures thereof” (priority 2003, published 2004)
# “Also recorded” adds a separate entry of the source.
# Legend:
# [1] = compared with sodium valproate; from Ser. No. 08/479,959 and WO 94/22483; listed as TVA 16; cited from earlier work
# [2] = tested on: pentylenetetrazol (PTZ) induced seizure; experiment: PTZ-induced seizures test in mice; format: in vivo, CD-1 mice; conditions: for time of peak activity / maximal therapeutic effect: PTZ-induced seizures, s.c. equivalent to 40 mg/kg VPA; for % Protection / Second seizure (n//N): s.c. pre-treatment equivalent to 40 mg/kg VPA
# Protocol: The anti-epileptic efficacies of C16-DP-VPA, C18-DP-VPA and mixtures comprising both C16-DP-VPA and C18-DP-VPA were evaluated in mice. The protective effect of the compounds was compared at different time points following chemical seizure induction by pentylenetetrazol (PTZ).
# The pentylenetetrazol (PTZ) induced seizure model in mice is an established animal model system for epilepsy. Subcutaneous injection of PTZ into control animals results in the following sequence of events: myoclonic jerks within 1-2 mins, followed by clonic and clonic-tonic seizures each lasting approximately 5-10 secs with the severity of seizures increasing with time for up to 30 mins. 80% of the first seizures are-observed within 5 mins, and 100% within 20 mins. The second seizures usually follow within 6-10 mins and subsequent seizures (if any) every 6 mins.
# CD-1 mice (25-30 g) were pre-treated by subcutaneous (s.c.) injection of either C16-DP-VPA or C18-DP-VPA or a mixture thereof. The amounts used were equivalent to 40 mg/kg VPA. After different times as indicated, 1, 2 or 4 hours, a convulsive dose of pentylenetetrazol (85-100 mg/kg) was subcutaneously injected into the mice. The animals were monitored for one hour following the PTZ administration for the occurrence of episodes of clonic spasms persisting for at least 5 sec.
# [3] = Pharmacokinetics study in humans: plasma levels by LC-MS/MS after a single oral administration; format: in vivo, human; conditions: for time at which the peak concentration in the plasma was reached / terminal plasma half-life (t1/2): human plasma, single oral administration of C16/C18-DP-VPA (13%:87% w/w); for terminal plasma half-life (t1/2): calculated from plasma concentration-time profiles; for plasma concentration: human
# Protocol: In order to assess the pharmacokinetic properties of the C16-DP-VPA and C18-DP-VPA compounds, the plasma levels of these compounds were monitored in human subjects.
# Healthy male volunteers, 18-40 year old, (7 individuals for each dose tested) received, by a single oral administration, 0.3125 g, 0.625 g or 1.25 g of C16/C18-DP-VPA mixture at a ratio of C16/C18=13%: 87% (w/w). Blood samples, 10 ml each, were drawn from each individual at the time points after the administration of the drug, as indicated. The samples were centrifuged at 4° C. at 1100 g for 10 minutes immediately after collection. Plasma levels of C16-DP-VPA and C18-DP-VPA were determined using a LC-MS/MS technique. The plasma concentration profiles of C16-DP-VPA and C18-DP-VPA as monitored for 24 hours following a single oral administration 0.625 g of C16/C18-DP-VPA are shown, respectively, in FIGS. 2A and 2B.
# [4] = 1 hour after single oral 0.625 g C16/C18-DP-VPA
# [5] = 3 hours after single oral 0.625 g C16/C18-DP-VPA
# [6] = 6 hours after single oral 0.625 g C16/C18-DP-VPA
# [7] = 8 hours after single oral 0.625 g C16/C18-DP-VPA
# [8] = 10 hours after single oral 0.625 g C16/C18-DP-VPA
# [9] = 12 hours after single oral 0.625 g C16/C18-DP-VPA
SMILES,anticonvulsant activity [1],time of peak activity / maximal therapeutic effect [2] [h],% Protection ([2]; PTZ after 1 h) [%],Second seizure (n//N) ([2]; PTZ after 1 h),% Protection ([2]; PTZ after 2 h) [%],Second seizure (n//N) ([2]; PTZ after 2 h),% Protection ([2]; PTZ after 4 h) [%],Second seizure (n//N) ([2]; PTZ after 4 h),time at which the peak concentration in the plasma was reached [3] [h],terminal plasma half-life (t1/2) [3] [h],"plasma concentration [3, 4] [ng/mL]","plasma concentration [3, 5] [ng/mL]","plasma concentration [3, 6] [ng/mL]","plasma concentration [3, 7] [ng/mL]","plasma concentration [3, 8] [ng/mL]","plasma concentration [3, 9] [ng/mL]"
"CCCCCCCCCCCCCCCC(=O)OC[C@H](COP(=O)([O-])OCC[N+](C)(C)C)OC(=O)C(CCC)CCC [C16-DP-VPA, 1-Palmitoyl-2-valproyl-sn-glycero-3-phosphatidylcholine]",significant anticonvulsant activity; also recorded: more potent than sodium valproate,≤ 1,50,4/8,25,6/8,38,5/8,6,14.0 ± 0.6,13 ± 34,167 ± 94,397 ± 172,385 ± 140,368 ± 182,318 ± 150
"CCCCCCCCCCCCCCCCCC(=O)OC[C@H](COP(=O)([O-])OCC[N+](C)(C)C)OC(=O)C(CCC)CCC [C18-DP-VPA, 1-Stearoyl-2-valproyl-sn-glycero-3-phosphatidylcholine]",,4,17,5/6,14,6/7,86,1/7,8,8.3 ± 1.3,0 ± 0,58 ± 43,818 ± 292,1175 ± 137,949 ± 254,698 ± 163
